Data from ChEMBL document CHEMBL4616652, “Bioactive Polyhydroxanthones from Penicillium purpurogenum” (J Nat Prod, 2020).
Converted amounts (≈) assume the structure as drawn. Where a name gives a salt, the structure may show the parent alone.

Tests used:
A549 = experiment: Cytotoxicity against human A549 cells after 72 hrs by MTT assay; type: functional, cell-based; details: A549, 72 h
Vero = experiment: Cytotoxicity against African green monkey Vero cells incubated for 72 hrs by MTT assay; type: cell-based; details: Chlorocebus sabaeus
HeLa = experiment: Cytotoxicity against human HeLa cells after 72 hrs by MTT assay; type: functional, cell-based
Shigella dysenteriae = experiment: Antimicrobial activity against Shigella dysenteriae incubated for 7 hrs by alamar Blue assay; type: functional
HepG2 = experiment: Cytotoxicity against human HepG2 cells after 72 hrs by MTT assay; type: functional, cell-based; details: HepG2, 72 h
Staphylococcus aureus [1] = experiment: Antimicrobial activity against methicillin-resistant Staphylococcus aureus incubated for 7 hrs by alamar Blue assay; type: functional
Staphylococcus aureus [2] = experiment: Antimicrobial activity against Staphylococcus aureus incubated for 7 hrs by alamar Blue assay; type: functional

Row | SMILES | IC50 (A549) [µM] | IC50 (Vero) [µM] | IC50 (HeLa) [µM] | MIC (Shigella dysenteriae) [µg/mL] | IC50 (HepG2) [µM] | MIC (Staphylococcus aureus [1]) [µg/mL] | MIC (Staphylococcus aureus [2]) [µg/mL]
1 | C[C@@]12O[C@@H]1C(O)=C1C(=O)c3c(ccc(-c4ccc5c(c4O)C(=O)C4=C(O)[C@H]6O[C@@]6(C)[C@H](OC(=O)CCC(=O)O)[C@]4(C)O5)c3O)O[C@@]1(C)[C@H]2OC(=O)CCC(=O)O | > 50 | > 50 | > 50 | 100 (≈ 128 µM) | > 50 | 100 (≈ 128 µM) | 12.5 (≈ 16.1 µM)
2 | COC(=O)CCC(=O)O[C@H]1[C@]2(C)O[C@@H]2C(O)=C2C(=O)c3c(ccc(-c4ccc5c(c4O)C(=O)C4=C(O)[C@H]6O[C@@]6(C)[C@H](OC(=O)CCC(=O)OC)[C@]4(C)O5)c3O)O[C@]21C | 0.6 | > 50 | 0.3 | 6.3 (≈ 7.81 µM) | 0.5 | 0.4 (≈ 0.496 µM) | 0.4 (≈ 0.496 µM)
3 | C[C@@H]1C[C@@H](O)[C@@]2(O)C(=O)c3c(O)cccc3O[C@]2(C)[C@H]1O | > 50 | > 50 | > 50 | > 100 | > 50 |  | > 100
4 | C[C@@]12O[C@@H]1[C@H](O)[C@]1(O)C(=O)c3c(O)cccc3O[C@@]1(C)[C@H]2O | > 50 | > 50 | > 50 | > 100 | > 50 |  | > 100
5 | C[C@@]12O[C@]3(C(=O)c4c(O)cccc4O[C@@]3(C)[C@H]1O)[C@@H](O)[C@H]2O | > 50 | > 50 | > 50 | > 100 | > 50 |  | > 100
6 | CC1=C[C@H](O)[C@]2(O)C(=O)c3c(O)cccc3O[C@@]2(C)[C@H]1OC(=O)CCC(=O)O | > 50 | > 50 | > 50 | > 100 | > 50 |  | > 100
7 | COC(=O)CCC(=O)O[C@H]1[C@]2(C)O[C@@H]2C(O)=C2C(=O)c3c(ccc(-c4ccc5c(c4O)C(=O)C4=C(O)[C@H]6O[C@@]6(C)[C@H](OC(=O)CCC(=O)O)[C@]4(C)O5)c3O)O[C@]21C | 32 | > 50 | 7.6 | 6.3 (≈ 7.95 µM) | 4.8 | 12.5 (≈ 15.8 µM) | 3.1 (≈ 3.91 µM)
8 | CC1=C[C@H](O)[C@]2(O)C(=O)c3c(O)cccc3O[C@@]2(C)[C@H]1O | > 50 | > 50 | > 50 | > 100 | > 50 |  | > 100
9 | COc1cccc2c1C(=O)c1c(O)c3c(c(O)c1C2=O)C[C@@](O)(C(=O)CO)C[C@@H]3O[C@H]1C[C@H](N)[C@H](O)[C@H](C)O1 [DOXORUBICIN HYDROCHLORIDE] | 0.7 |  | 0.5 |  |  |  | 
10 | NC[C@H]1O[C@H](O[C@H]2[C@H](O)[C@@H](O[C@H]3O[C@H](CO)[C@@H](O)[C@H](N)[C@H]3O)[C@H](N)C[C@@H]2N)[C@H](O)[C@@H](O)[C@@H]1O [KANAMYCIN] |  |  |  | 0.2 (≈ 0.413 µM) |  | > 100 | 0.8 (≈ 1.65 µM)
11 | CN[C@H](CC(C)C)C(=O)N[C@H]1C(=O)N[C@@H](CC(N)=O)C(=O)N[C@H]2C(=O)N[C@H]3C(=O)N[C@H](C(=O)N[C@H](C(=O)O)c4cc(O)cc(O)c4-c4cc3ccc4O)[C@H](O)c3ccc(c(Cl)c3)Oc3cc2cc(c3O[C@@H]2O[C@H](CO)[C@@H](O)[C@H](O)[C@H]2O[C@H]2C[C@](C)(N)[C@H](O)[C@H](C)O2)Oc2ccc(cc2Cl)[C@H]1O [VANCOMYCIN] |  |  |  |  |  | 0.8 (≈ 0.552 µM) | 
